Structures can show the parent of a compound that is named as a salt.
molecular target: c-fms (Homo sapiens, UniProt P07333); test: autophosphorylation, fluorescence polarization competition immunoassay for c-fms inhibition; format: biochemical; conditions: 10 nM c-fms, 1 mM ATP, 5 mM MgCl2, 2% DMSO, 45 min at room temperature; averages of three independent measurements; read-out: c-fins IC50
Protocol: The assay buffer used was 100 mM 4-(2-hydroxyethyl)piperazine 1-ethanesulfonic acid (HEPES), pH 7.5, 1 mM 1,4-dithio-DL-threitol (DTT), 0.01% (v/v) Tween-20. Compounds were diluted in assay buffer containing 4% dimethylsulfoxide (DMSO) just prior to the assay. […] The kinase reaction was initiated by adding 2 μL of 5 mM ATP (Sigma) in assay buffer. The final concentrations in the assay were 10 nM c-fms, 1 mM ATP, 5 mM MgCl2, 2% DMSO. Control reactions were ran in each plate: in positive and negative control wells, assay buffer (made 4% in DMSO) was substituted for the compound; in addition, positive control wells received 1.2 μL of 50 mM ethylenediaminetetraaceticacid (EDTA).
The plates were incubated at room temperature for 45 min. At the end of the incubation, the reaction was quenched with 1.2 μL of 50 mM EDTA (EDTA was not added to the positive control wells at this point; see above). Following a 5-min incubation, each well received 10 μL of a 1:1:3 mixture of anti-phosphotyrosine antibody, 10X, PTK green tracer, 10X (vortexed), FP dilution buffer, respectively (all from PanVera, cat. # P2837). The plate was covered, incubated for 30 min at room temperature and the fluorescence polarization was read on the Analyst. […] The reported IC50 values are averages of three independent measurements.

Chain of c-fms (P07333 20-972): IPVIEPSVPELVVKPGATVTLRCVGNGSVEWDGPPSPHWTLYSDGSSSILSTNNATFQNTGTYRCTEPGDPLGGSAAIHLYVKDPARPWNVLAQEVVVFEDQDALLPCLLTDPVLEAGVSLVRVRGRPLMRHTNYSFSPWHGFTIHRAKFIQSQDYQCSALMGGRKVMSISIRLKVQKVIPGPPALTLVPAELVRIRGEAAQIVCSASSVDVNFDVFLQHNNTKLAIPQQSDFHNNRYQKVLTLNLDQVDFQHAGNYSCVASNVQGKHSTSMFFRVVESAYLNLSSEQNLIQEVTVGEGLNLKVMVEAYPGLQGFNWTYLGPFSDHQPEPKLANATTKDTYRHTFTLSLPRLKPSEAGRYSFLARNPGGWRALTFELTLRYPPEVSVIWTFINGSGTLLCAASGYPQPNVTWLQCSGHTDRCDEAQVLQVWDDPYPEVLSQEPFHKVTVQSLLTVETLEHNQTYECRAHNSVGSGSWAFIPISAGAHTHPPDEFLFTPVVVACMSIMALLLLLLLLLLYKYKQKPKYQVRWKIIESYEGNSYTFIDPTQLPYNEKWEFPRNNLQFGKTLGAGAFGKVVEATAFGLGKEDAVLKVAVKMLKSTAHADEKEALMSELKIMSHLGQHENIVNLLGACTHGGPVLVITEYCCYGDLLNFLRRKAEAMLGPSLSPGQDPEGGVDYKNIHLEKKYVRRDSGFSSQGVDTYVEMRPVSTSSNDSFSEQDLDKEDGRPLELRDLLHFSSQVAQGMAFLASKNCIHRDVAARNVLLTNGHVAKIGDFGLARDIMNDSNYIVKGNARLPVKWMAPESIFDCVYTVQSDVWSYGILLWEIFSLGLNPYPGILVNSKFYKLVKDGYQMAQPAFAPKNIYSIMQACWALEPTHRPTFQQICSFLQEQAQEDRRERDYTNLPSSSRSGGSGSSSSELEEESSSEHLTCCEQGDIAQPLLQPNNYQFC

Row | SMILES | IC50
1 | N#Cc1c[nH]c(C(=O)Nc2ccc(C3CCNCC3)cc2C2=CCS(=O)(=O)CC2)n1 [Example 36, 4-Cyano-1H-imidazole-2-carboxylic acid [2-(1,1-dioxo-1,2,3,6-tetrahydro-1λ^6-thiopyran-4-yl)-4-piperidin-4-yl-phenyl]-amide trifluoroacetic acid salt] | 60 nM
2 | O=C(Nc1ccc(C2CCNCC2)cc1C1=CCCCC1)c1nnc(Cl)[nH]1 [Example 50, 5-Chloro-4H-[1,2,4]-triazole-3-carboxylic acid (2-cyclohex-1-enyl-4-piperidin-4-yl-phenyl)-amide trifluoroacetic acid salt] | 60 nM
3 | O=C(Nc1ccc(C2CCNCC2)cc1C1=CCCCC1)c1nnc[nH]1 [Example 49, 4H-[1,2,4]-triazole-3-carboxylic acid (2-cyclohex-1-enyl-4-piperidin-4-yl-phenyl)-amide bis trifluoroacetic acid salt] | 60 nM
4 | CC1(C)CC=C(c2nc(C3CCN(CCS(C)(=O)=O)CC3)ccc2NC(=O)c2nc(C#N)c[nH]2)CC1 [Example 56, 4-Cyano-1H-imidazole-2-carboxylic acid [6-(4,4-dimethyl-cyclohex-1-enyl)-1′-(2-methanesulfonyl-ethyl)-1′,2′,3′,4′,5′,6′-hexhydro-[2,4′]bipyridinyl-5-yl]-amide trifluoroacetic acid salt] | 1 nM
5 | Cn1ccnc1CN1CCC(c2ccc(NC(=O)c3nc(C#N)c[nH]3)c(C3=CCCC3)c2)CC1 [Example 23, 4-Cyano-1H-imidazole-2-carboxylic acid {2-cyclopent-1-enyl-4-[1-(1-methyl-1H-imidazol-2-ylmethyl)-piperidin-4-yl]-phenyl}-amide trifluoroacetic acid salt] | 6.6 nM
6 | CN1CCN(c2ccc(NC(=O)c3ccc(C#N)o3)c(C3=CCOCC3)c2)CC1 [Example 12] | 60 nM
7 | C[C@H]1CC(c2ccc(NC(=O)c3ncc(C#N)[nH]3)c(C3=CCCCC3)c2)C[C@H](C)N1 (stereo partly drawn) [Example 51b, 5-cyano-1H-imidazole-2-carboxylic acid [2-cyclohex-1-enyl-4-(trans-2,6-dimethyl-piperidin-4-yl)-phenyl]-amide bis trifluoroacetic acid salt] | 0.4 nM
8 | CNCC(=O)N1CCC(c2ccc(NC(=O)c3nc(C#N)c[nH]3)c(C3=CCCCC3)c2)CC1 [Example 38b, 4-Cyano-1H-imidazole-2-carboxylic acid {2-cyclohex-1-enyl-4-[1-(2-methylamino-acetyl)-piperidin-4-yl]-phenyl}-amide] | 1.4 nM
9 | CC(=O)N1CCC(c2ccc(NC(=O)c3nc(C#N)c[nH]3)c(C3=CCS(=O)(=O)CC3)c2)CC1 [Example 37, 4-Cyano-1H-imidazole-2-carboxylic acid [4-(1-acetyl-piperidin-4-yl)-2-(1,1-dioxo-1,2,3,6-tetrahydro-1λ^6-thiopyran-4-yl)-phenyl]-amide] | 60 nM
10 | CC1(C)CC=C(c2nc(C3CCNCC3)ccc2NC(=O)c2nc(C#N)c[nH]2)CC1 [Example 54, 4-Cyano-1H-imidazole-2-carboxylic acid [6-(4,4-dimethyl-cyclohex-1-enyl)-1′,2′,3′,4′,5′,6′-hexahydro-[2,4′]bipyridinyl-5-yl]-amide trifluoroacetic acid salt] | 0.8 nM
11 | C[C@@H]1CC(c2ccc(NC(=O)c3ncc(C#N)[nH]3)c(C3=CCCCC3)c2)C[C@H](C)N1 (stereo partly drawn) [Example 51a, 5-Cyano-1H-imidazole-2-carboxylic acid [2-cyclohex-1-enyl-4-(cis-2,6-dimethyl-piperidin-4-yl)-phenyl]-amide bis trifluoroacetic acid salt] | 0.2 nM
12 | N#Cc1c[nH]c(C(=O)Nc2ccc(C3CCNCC3)cc2C2=CCCCC2)c1 [Example 13, 4-Cyano-1H-pyrrole-2-carboxylic acid (2-cyclohex-1-enyl-4-piperidin-4-yl-phenyl)-amide trifluoroacetic acid salt] | 12 nM
13 | Cc1ccccc1-c1cc(N2CCN(C)CC2)ccc1NC(=O)c1ccc(C#N)o1 [Example 9, 5-Cyano-furan-2-carboxylic acid [2 ′-methyl-5-(4-methyl-piperazin-1-yl)-biphenyl-2-yl]-amide] | 630 nM
14 | N#Cc1c[nH]c(C(=O)Nc2ccc(C3CCS(=O)(=O)CC3)cc2C2=CCCCC2)n1 [Example 35, 4-Cyano-1H-imidazole-2-carboxylic acid [2-cyclohex-1-enyl-4-(1,1-dioxo-hexahydro-1λ^6-thiopyran-4-yl)-phenyl]-amide] | 2.9 nM
15 | CS(=O)(=O)CCN1CCC(c2ccc(NC(=O)c3nc(C#N)c[nH]3)c(C3=CCCCC3)n2)CC1 [Example 58, 5-Cyano-1H-imidazole-2-carboxylic acid [6-cyclohex-1-enyl-1′-(2-methanesulfonyl-ethyl)-1′,2′,3′,4′,5′,6′-hexahydro-[2,4′]bipyridinyl-5-yl]-amide] | 7 nM
16 | CC1CC=C(c2cc(C3CCN(Cc4ccccn4)CC3)ccc2NC(=O)c2nc(C#N)c[nH]2)CC1 (stereo not shown) [Example 22, 4-Cyano-1H-imidazole-2-carboxylic acid [2-(4-methyl-cyclohex-1-enyl)-4-(1-pyridin-2-ylmethyl-piperidin-4-yl)-phenyl]-amide trifluoroacetic acid salt] | 1.4 nM
17 | Cc1cscc1-c1cc(N2CCN(C)CC2)ccc1NC(=O)c1ccc(C#N)o1 [Example 5, 5-Cyano-furan-2-carboxylic acid [4-(4-methyl-piperazin-1-yl)-2-(4-methyl-thiophen-3-yl)-phenyl]-amide] | 950 nM
18 | CON1CCC(c2ccc(NC(=O)c3ncc(C#N)[nH]3)c(C3=CCCCC3)c2)CC1 [Example 53, 5-Cyano-1H-imidazole-2-carboxylic acid [2-cyclohex-1-enyl-4-(1-methoxy-piperidin-4-yl)-phenyl]-amide trifluoroacetic acid salt] | 5.3 nM
19 | CC(=O)N1CCC(c2ccc(NC(=O)c3cc(C#N)c[nH]3)c(C3=CCCCC3)c2)CC1 [Example 15, 4-Cyano-1H-pyrrole-2-carboxylic acid [4-(1-acetyl-piperidin-4-yl)-2-cyclohex-1-enyl-phenyl]-amide] | 28 nM
20 | CN1CCN(c2ccc(NC(=O)c3ccc(C#N)o3)c(-c3ccccc3F)c2)CC1 [Example 10, 5-Cyano-furan-2-carboxylic acid [2′-fluoro-5-(4-methyl-piperazin-1-yl)-biphenyl-2-yl]-amide] | 900 nM
21 | CN(C)CC(=O)N1CCC(c2ccc(NC(=O)c3nc(C#N)c[nH]3)c(C3=CCC(C)(C)CC3)n2)CC1 [Example 55, 4-Cyano-1H-imidazole-2-carboxylic acid [1′-(2-dimethylamino-acetyl)-6-(4,4-dimethyl-cyclohex-1-enyl)-1′,2′,3′,4′,5′,6′-hexahydro-[2,4′]bipyridinyl-5-yl]-amide trifluoroacetic acid salt] | 0.7 nM

same assay, conditions: read-out: c-fins IC50

Row | SMILES | IC50
22 | Cc1ccsc1-c1cc(N2CCN(C)CC2)ccc1NC(=O)c1ccc(C#N)o1 [Example 4, 5-Cyano-furan-2-carboxylic acid [4-(4-methyl-piperazin-1-yl)-2-(3-methyl-thiophen-2-yl)-phenyl]-amide] | 470 nM

Reference: US7645755B2, “Inhibitors of c-fms kinase” (Janssen Pharmaceutical N.V., priority 2004, dated 2010)
